Values quoted from earlier work as cited in patent publication US20040014215A1, “Synchronised arabidopsis cell suspensions and uses thereof” (priority 2000, published 2004).

Assays:
cell cycle = conditions: phase of the cell cycle at which cells are arrested; cited from earlier work
[1] = system: plant cells derived from a petunia protoplast culture; conditions: cited from earlier work
tobacco BY-2 cell line = conditions: BY-2 pre-synchronised with aphidicolin, then propyzamide for a few hours and removal; cited from earlier work
[2] = system: Arabidopsis cell suspension cultures; conditions: low concentration of cycloheximide, release by washing; cited from earlier work
[3] = system: purified CDK/cyclin complexes; conditions: cited from earlier work

## NC(Cn1ccc(=O)c(O)c1)C(=O)O (stereo not drawn) [mimosine]
Cell cycle
  cell cycle arrest: early S
[1]
  cell cycle block: reversible block during G1 and in early/mid S-phase

## NC(=O)NO [hydroxyurea]
Cell cycle
  cell cycle arrest: G1/S phase boundary

## C#CC(C)(C)NC(=O)c1cc(Cl)cc(Cl)c1 [propyzamide]
Tobacco BY-2 cell line
  mitotic index: 80-90%

## C[C@@H]1C[C@@H]([C@H](O)CC2CC(=O)NC(=O)C2)C(=O)[C@@H](C)C1 [cycloheximide]
[2]
  peak mitotic index: 9%

## CC[C@H](CO)Nc1nc(NCc2ccccc2)c2ncn(C(C)C)c2n1 [roscovitine]
[3]
  histone H1 kinase activity: inhibit the histone H1 kinase activity
